{"source": "patent US20240034765A1", "about": "“SCG2 NEUROPEPTIDES AND USES THEREOF” (PRESIDENT AND FELLOWS OF HARVARD COLLEGE, priority 2020, published 2024)", "key": {"[1]": {"test_system": "hM3DGq-expressing neurons", "test": "Cell-attached recording of CA1 PC in slice after bath application of CNO", "assay_type": "cell-based, mice", "details": "cell-attached mode"}, "CA1 neurons": {"test_system": "CA1 neurons", "test": "AAV-based activity reporter mKate2 labelling of recently activated CA1 neurons", "assay_type": "in vivo, mice", "details": "24 h post-KA injection", "method": "First, tests were performed to determine whether either of these forms of perisomatic inhibition (by PV-expressing INs and CCK-expressing INs) are differentially regulated onto Fos-expressing neurons compared to neighboring non-Fos-expressing neurons. Mice were exposed to a series of novel environments, which robustly activated Fos in a sparse subset of CA1 PCs (see e.g., FIG. 1A, FIG. 7A-FIG. 7D). To label these Fos-expressing neurons, an adeno-associated virus (AAV)-based reporter was used that expresses the fluorescent protein mKate2 selectively in recently activated neurons (see e.g., FIG. 1B); see e.g., Fenno et al. Nat Methods 11, 763-772, (2014), the content of which is incorporated herein by reference in its entirety. Using this reporter, a significant increase was detected in the number of recently activated neurons (mKate2^+) in mice exposed to 2-3 days (see e.g., FIG. 1D) of novel environments (NE) compared to control mice housed under standard (Strd) conditions (see e.g., FIG. 1C). This 2-3d timepoint was therefore appropriate for assessing the long-lasting effects of Fos and its late-response target gene(s), which were usually activated within 1-12 hours (h) of stimulus onset (see e.g., FIG. 1D).\nIntraperitoneal (i.p.) injections.\nHistology. Mice were anaesthetized with 10 mg/mL ketamine and 1 mg/mL xylazine in phosphate buffered saline (PBS) via i.p. injection. […]"}, "CA1": {"test_system": "CA1", "test": "Cell health in CA1 24 h post-KA (Hoechst, NeuN, cleaved-caspase 3 immunostaining)", "assay_type": "in vivo, mice", "details": "within 24 h of KA injection", "method": "FIG. 8A-8Q is a series of schematics, images, and graphs showing IN-to-CA1 PC paired recordings and cell health parameters in 24 h post-KA condition. FIG. 8A and FIG. 8G are schematics of the genetic strategy to label PV-INs (PV^Cre; Ai14; FIG. 8A) or CCK-INs (D1×5/6^Flp; CCK^Cre; Ai65; FIG. 8G). FIG. 8B and FIG. 8H are representative images of tdTomato fluorescence in the CA1 field. Scale: 100 μm. N=2 mice per line. FIG. 8C and FIG. 8I are bar graphs showing quantification of the fraction of (FIG. 8C) PV- or (FIG. 8I) CCK-to-CA1 PC synaptically-connected pairs from the overall number of pairs recorded in both vehicle (Veh.) and 24 h post-KA mice. In FIG. 8C, Veh., n=13/22; KA, n=19/30; in FIG. 8I, Veh., n=16/40; KA, […], where n=number of connections/total pairs. FIG. 8D and FIG. 8J are dot plots showing quantification of the maximum firing rate of (FIG. 8D) PV- or (FIG. 8J) CCK-INs from connected pairs. […] FIG. 8E and FIG. 8K are dot plots showing quantification of spike adaptation ratio of (FIG. 8E) PV- or (FIG. 8J) CCK-INs from connected pairs as in FIG. 8D and FIG. 8J, respectively. FIG. 8F and FIG. 8L are line graphs showing quantification of paired pulse ratios (PPRs) of uIPSCs at the indicated interstimulus intervals (ISI) for (FIG. 8F) PV- (Veh., n=13/6; KA, n=19/7) or (FIG. 8L) CCK- (Veh., n=16/9; KA, n=16/4) to-CA1 PC connected pairs, where n=number of pairs/number of mice. […]"}, "specific cell types": {"test_system": "specific cell types", "details": "cited from earlier work"}}}
{"compound": "C[N+]1([O-])CCN(C2=Nc3cc(Cl)ccc3Nc3ccccc32)CC1", "note": "[CNO, clozapine N-oxide]", "values": [{"measurement": "firing rate of hM3DGq-expressing CA1 PC", "setting": "[1]", "result": "firing rate increases"}]}
{"compound": "C=C(C)[C@H]1CN[C@H](C(=O)O)[C@H]1CC(=O)O", "note": "[kainic acid]", "values": [{"measurement": "average percentage of mKate2+ neurons over total number of DAPI cells", "setting": "CA1 neurons", "result": 96, "unit": "%"}, {"measurement": "cell death (Hoechst+, NeuN+, cleaved-caspase+ cells per 40-μm section, all layers of CA1)", "setting": "CA1", "result": "did not induce cell death"}]}
{"compound": "secretoneurin (TNEIVEEQYTPQSLATLESVFQELGKLTGPNNQ; listed as Homo sapiens) [33 aa]", "values": [{"measurement": "chemotaxic effects on specific cell types", "setting": "specific cell types", "result": "chemotaxic effects"}]}
